In brackets after ≈: the same amount, converted by molar mass. Like-named read-outs stand apart in the source and are kept apart here.
What was measured:
[1] = system: Klebsiella pneumoniae ATCC 10031; test: Antibacterial activity, agar dilution method (MIC); type: cell-based
Text: (§1) The antibacterial activity as determined by the agar dilution method using a medium prepared by dissolving 3 g of Bacto-Tryptone (a product of Difco Laboratories), 3 g of a meat extract, 1 g of an yeast extract, 1 g of glucose and 16 g of agar in one liter of water (pH 7).
KP: Klebsiella pneumoniae ATCC 10031

[2] = system: Staphylococcus aureus ATCC 6538P; test: Antibacterial activity, agar dilution method (MIC); type: cell-based; conditions: ATCC6538P
Text: as §1
SA: Staphylococcus aureus ATCC 6538P

[3] = system: Bacillus subtilis No. 10707; test: Antibacterial activity, agar dilution method (MIC); type: cell-based
Text: as §1
BS: Bacillus subtilis No. 10707

[4] = system: Enterococcus faecium ATCC 10541; test: Antibacterial activity, agar dilution method (MIC); type: cell-based
Text: as §1
EF: Enterococcus faecium ATCC 10541

Escherichia coli ATCC 26 = test: Antibacterial activity, agar dilution method (MIC); type: cell-based
Text: as §1
EC: Escherichia coli ATCC 26

P388 Leukemia = test: Antitumor activity against P388 leukemia in mice (increased life span); type: in vivo, CDF1 mice; conditions: Mus musculus, P388, ip, 720 h
Description: Ascites were collected from the abdominal cavity of P388 ascites tumor-bearing cancer mice (DBA/2) on the 7th day after transplantation. A number of P388 cells in the ascites was counted, and a tumor cell floating liquid of 5×10^6 cells/ml was prepared using a physiological saline solution. Then, 0.2 ml of the solution containing 1×10^6 cells was transplanted into the abdominal cavity of CDF1 mice having a body weight of from 20 to 25 g.
The effect of the test compound was determined in terms of the ratio of average survival days of the group administered with the test compound to average survival days of the control group (non-medicated group) (i.e., an increased life span, ILS%).

[5] = ATCC10031, KP: Klebsiella pneumoniae ATCC 10031, agar dilution, pH 7, read-out: MIC (minimum growth inhibitory concentration)
[6] = SA: Staphylococcus aureus ATCC 6538P, agar dilution, pH 7, read-out: MIC (minimum growth inhibitory concentration)
[7] = BS: Bacillus subtilis No. 10707, pH 7, read-out: MIC (minimum growth inhibitory concentration)
[8] = ATCC10541, EF: Enterococcus faecium ATCC 10541, pH 7, read-out: MIC (minimum growth inhibitory concentration)
[9] = ATCC26, EC: Escherichia coli ATCC 26, pH 7, read-out: MIC (minimum growth inhibitory concentration)
[10] = Klebsiella pneumoniae, ATCC10031, pH 7, read-out: MIC (minimum growth inhibitory concentration)
[11] = Staphylococcus aureus, pH 7, read-out: MIC (minimum growth inhibitory concentration)
[12] = Bacillus subtilis, NO.10707, pH 7, read-out: MIC (minimum growth inhibitory concentration), BS: Bacillus subtilis No. 10707
[13] = Enterococcus faecium, ATCC10541, pH 7, read-out: MIC (minimum growth inhibitory concentration), EF: Enterococcus faecium ATCC 10541
[14] = Escherichia coli, ATCC26, pH 7, read-out: MIC (minimum growth inhibitory concentration), EC: Escherichia coli ATCC 26
[15] = single i.p. 24 hours after transplantation, CDF1 mice, 30 days observation

| MIC [1, 5] | MIC [2, 6] | MIC [3, 7] | MIC [4, 8] | SMILES | further results |
| --- | --- | --- | --- | --- | --- |
| 1 µg/mL (≈ 1.8 µM) | 0.13 µg/mL (≈ 0.234 µM) | 0.033 µg/mL (≈ 0.0595 µM) | 0.065 µg/mL (≈ 0.117 µM) | COCOC1/C=C(\C)CCC2(CC(=O)NC(C)c3nc(cs3)/C=C\C=C\C1=O)[S+]([O-])SC(=O)C2(C)O (stereo not drawn) [Compound 30] | MIC (Escherichia coli ATCC 26; [9]): 8.3 µg/mL (≈ 15 µM) |
| 4.2 µg/mL (≈ 5.71 µM) | 1 µg/mL (≈ 1.36 µM) | 0.033 µg/mL (≈ 0.0449 µM) | 1 µg/mL (≈ 1.36 µM) | COC1(OC2C=C(C)CCC3(C(C)(O)C(=O)SCc4oc(=O)oc4C)CC(=O)N(C(C)c4nc(cs4)C=CC=CC2=O)[S+]3[O-])CCCCC1 (stereo not drawn) [Compound 126] |  |
|  |  |  |  | C/C1=C\C(OC2CCCCO2)C(=O)/C=C/C=C\c2csc(n2)C(C)NC(=O)CC2(CC1)[S+]([O-])SC(=O)C2(C)O (stereo not drawn) [Compound 18] | MIC [1, 10]: 2.6 µg/mL (≈ 4.37 µM); MIC [2, 11]: 0.16 µg/mL (≈ 0.269 µM); MIC [3, 12]: 0.041 µg/mL (≈ 0.0689 µM); MIC [4, 13]: 0.16 µg/mL (≈ 0.269 µM); MIC (Escherichia coli ATCC 26; [14]): 1.3 µg/mL (≈ 2.19 µM) |
|  |  |  |  | C/C1=C\C(OC(=O)OCC(C)C)C(=O)/C=C/C=C\c2csc(n2)C(C)N2C(=O)CC(C(C)(O)C(=O)SCc3oc(=O)oc3C)(CC1)[S+]2[O-] (stereo not drawn) [Compound 54] | MIC [2, 11]: 0.13 µg/mL (≈ 0.18 µM); MIC [4, 13]: 0.13 µg/mL (≈ 0.18 µM); ILS at 2 mg/kg (P388 Leukemia; read-out: ILS (increased life span)): 42%; MIC (Escherichia coli ATCC 26; [14]): 0.018 µg/mL (≈ 0.0249 µM) |
| 0.098 µg/mL (≈ 0.147 µM) | 0.39 µg/mL (≈ 0.585 µM) | 0.049 µg/mL (≈ 0.0735 µM) | 0.39 µg/mL (≈ 0.585 µM) | CCCCCCCC(=O)OCSC(=O)C(C)(O)C12CC/C(C)=C/C(O)C(=O)/C=C/C=C\c3csc(n3)C(C)N(C(=O)C1)[S+]2[O-] (stereo not drawn) [Compound 84] |  |
|  |  |  |  | CC1=CC(OC2CCCCO2)C(=NO)C=CC=Cc2csc(n2)C(C)N2C(=O)CC(C(C)(O)C(=O)SCc3oc(=O)oc3C)(CC1)[S+]2[O-] (stereo not drawn) [Compound 125] | ILS at 16 mg/kg (P388 Leukemia; [15]): 54% |
| 2.1 µg/mL (≈ 2.5 µM) | 2.1 µg/mL (≈ 2.5 µM) | 2.1 µg/mL (≈ 2.5 µM) | 2.1 µg/mL (≈ 2.5 µM) | CC1=CC(OC(=O)CNC(=O)CNC(=O)c2ccccc2)C(=O)C=CC=Cc2csc(n2)C(C)N2C(=O)CC(C(C)(O)C(=O)SCc3oc(=O)oc3C)(CC1)[S+]2[O-] (stereo not drawn) [Compound 167] | ILS at 16 mg/kg (P388 Leukemia; [15]): 90% |
|  |  |  |  | C/C1=C\C(OC(=O)CNC(=O)CCCNC(=O)OCc2ccccc2)C(=O)/C=C/C=C\c2csc(n2)C(C)NC(=O)CC2(CC1)[S+]([O-])SC(=O)C2(C)O (stereo not drawn) [Compound 113] | ILS at 16 mg/kg (P388 Leukemia; [15]): 58% |
|  |  |  |  | CC1=CC(OC(=O)CN(C)C(=O)OCc2ccccc2)C(=O)C=CC=Cc2csc(n2)C(C)N2C(=O)CC(C(C)(O)C(=O)SCc3oc(=O)oc3C)(CC1)[S+]2[O-] (stereo not drawn) [Compound 162] | ILS at 8 mg/kg (P388 Leukemia; 8.0 mg/kg, single i.p. 24 hours after transplantation, CDF1 mice, 30 days observation, read-out: ILS (increased life span)): 57% |
|  |  |  |  | C/C1=C\C(OC(=O)Oc2ccccc2)C(=O)/C=C/C=C\c2csc(n2)C(C)NC(=O)CC2(CC1)[S+]([O-])SC(=O)C2(C)O (stereo not drawn) [Compound 12] | ILS at 1 mg/kg (P388 Leukemia; 1.0 mg/kg, single i.p. 24 hours after transplantation, CDF1 mice, 30 days observation, read-out: ILS (increased life span)): 44% |
|  |  |  |  | C/C1=C\C(OC(=O)c2cnc3ccccc3n2)C(=O)/C=C/C=C\c2csc(n2)C(C)N2C(=O)CC(C(C)(O)C(=O)SCc3oc(=O)oc3C)(CC1)[S+]2[O-] (stereo not drawn) [Compound 52] | MIC [1, 10]: 23 µg/mL (≈ 29.5 µM); MIC [2, 11]: 0.72 µg/mL (≈ 0.924 µM); MIC [3, 12]: 2.9 µg/mL (≈ 3.72 µM); MIC [4, 13]: 0.72 µg/mL (≈ 0.924 µM); MIC (Escherichia coli ATCC 26; [14]): 92 µg/mL (≈ 118 µM) |

| SMILES | MIC [1, 5] | MIC [2, 6] | MIC [3, 7] | MIC [4, 8] | further results |
| --- | --- | --- | --- | --- | --- |
| C/C1=C\C(O)C(=NOCc2ccccc2)/C=C/C=C\c2csc(n2)C(C)NC(=O)CC2(CC1)[S+]([O-])SC(=O)C2(C)O (stereo not drawn) [Compound 69] | 0.23 µg/mL (≈ 0.373 µM) | 0.057 µg/mL (≈ 0.0926 µM) | 0.028 µg/mL (≈ 0.0455 µM) | 0.028 µg/mL (≈ 0.0455 µM) | MIC (Escherichia coli ATCC 26; [9]): 1.8 µg/mL (≈ 2.92 µM) |
| C/C1=C\C(OC(=O)CNC(=O)[C@H](CO)NC(=O)OCc2ccccc2)C(=O)/C=C/C=C\c2csc(n2)C(C)NC(=O)CC2(CC1)[S+]([O-])SC(=O)C2(C)O (stereo partly drawn) [Compound 116] | 0.033 µg/mL (≈ 0.0418 µM) | 0.033 µg/mL (≈ 0.0418 µM) | 0.033 µg/mL (≈ 0.0418 µM) | 0.033 µg/mL (≈ 0.0418 µM) | MIC (Escherichia coli ATCC 26; [9]): 4.2 µg/mL (≈ 5.32 µM) |
| C/C1=C\C(OC(=O)c2ccc(F)cc2)C(=O)/C=C/C=C\c2csc(n2)C(C)NC(=O)CC2(CC1)[S+]([O-])SC(=O)C2(C)O (stereo not drawn) [Compound 8] | 1.3 µg/mL (≈ 2.05 µM) | 0.081 µg/mL (≈ 0.128 µM) | 0.02 µg/mL (≈ 0.0316 µM) | 0.081 µg/mL (≈ 0.128 µM) | MIC (Escherichia coli ATCC 26; [9]): 1.3 µg/mL (≈ 2.05 µM) |

Source: patent US5733924A, “DC 107 derivatives and treatment methods” (Kyowa Hakko Kogyo Co., Ltd., priority 1995, dated 1998)
